This is an account of results in US20230271959A1, “HETEROCYCLIC COMPOUND AS BCL-2 INHIBITOR” (Beijing Innocare Pharma Tech Co., Ltd., priority 2020, published 2023).

Structures are written as SMILES.

For experiment [1], the target named is T1, human recombinant Bcl-XL protein (Homo sapiens, UniProt Q07817).
T1 construct: purchased Beijing Yiqiao Shenzhou Biotechnology Co., Ltd. 10455-H0SE
The experiment can be described thus: Fluorescence polarization test for inhibition of BCL-XL binding to FITC-BIM. To be noted: 10 nM BCL-XL, 10 nM FITC-BIM, read-out: FP BCL-XL IC50. The essentials:
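Human recombinant Bcl-XL (10 nM diluted stock) preincubated with compound 15 min at RT in PBS pH 7.4, 1 mM DTT, then FITC-BIM peptide (10 nM diluted stock) added for 30 min in dark. FP read at ex 480/em 535 nm; no-protein wells = 100% inhibition; IC50 from 8-point 4-fold dilution curve fit.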

Experiment [2] has as its target T2, human recombinant Bcl-2 protein (Homo sapiens, UniProt P10415).
T2 construct: purchased Beijing Yigiao Shenzhou Biotechnology Co., Ltd. 10195-HOSE
The experiment can be described thus: Fluorescence polarization test for inhibition of BCL-2 binding to FITC-BIM. The following applies: 5 nM BCL-2, 5 nM FITC-BIM, read-out: FP BCL-2 IC50. The method, boiled down: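 FP competition: compound preincubated 15 min with recombinant human Bcl-2 (diluted to 5 nM), then FITC-BIM (diluted to 5 nM) added for 30 min at room temperature in PBS pH 7.4 with 1 mM DTT. Polarization read at 480/535 nm; IC50 from 8-point 4-fold series fitted by four-parameter equation.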
(In general: Fluorescence polarisation rises when a labelled molecule tumbles more slowly, as on binding a larger partner.)

Experiment [3] concerns RS4;11 cells (acute lymphoblastic leukemia cells). In words: RS4;11 cell proliferation, CellTilter-Glo luminescence cell viability assay. The experiment is classed as cell-based. The following applies: Homo sapiens, RS4-11; CTG readout after 48 hours. The method, boiled down:
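RS4;11 cells plated overnight were exposed for 48 h at 37 °C, 5% CO2 to an 8-point, 4-fold compound dilution series; the vehicle control contained 0.2% DMSO. Viability was read by CellTiter-Glo luminescence. Percent inhibition was referenced to no-cell and DMSO controls, and IC50 came from a four-parameter sigmoidal fit.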

T2 sequence (P10415 whole entry): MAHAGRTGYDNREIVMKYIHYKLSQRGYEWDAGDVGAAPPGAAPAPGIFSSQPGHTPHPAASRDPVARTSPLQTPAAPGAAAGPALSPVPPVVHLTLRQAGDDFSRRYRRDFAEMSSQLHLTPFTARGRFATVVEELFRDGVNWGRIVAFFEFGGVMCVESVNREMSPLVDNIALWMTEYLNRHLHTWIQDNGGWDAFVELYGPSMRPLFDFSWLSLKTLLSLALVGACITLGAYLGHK
T1 sequence (Q07817 whole entry): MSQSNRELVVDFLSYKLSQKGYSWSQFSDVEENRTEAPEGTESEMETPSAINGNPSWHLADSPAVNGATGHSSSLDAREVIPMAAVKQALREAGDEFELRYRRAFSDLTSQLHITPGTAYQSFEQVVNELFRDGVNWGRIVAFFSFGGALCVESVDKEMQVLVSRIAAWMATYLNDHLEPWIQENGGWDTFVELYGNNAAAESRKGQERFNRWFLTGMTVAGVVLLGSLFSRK

With `C[C@@H]1CCC(CN2CCN(c3ccc(C(=O)NS(=O)(=O)c4ccc(NC[C@H]5COCCO5)c([N+](=O)[O-])c4)c(Oc4cnc5[nH]ccc5c4)c3)[C@H](C)C2)=C(c2ccc(Cl)cc2)C1` [Example 24], the IC50 (in general, the midpoint of a concentration-inhibition curve) in experiment [1] was over 1000 nM; in experiment [2] it was 6.3 nM; in experiment [3] it was 24 nM.
The matching figures for `C[C@@H]1CCC(CN2CCN(c3ccc(C(=O)NS(=O)(=O)c4cc(F)c(NCC5CCOCC5)c([N+](=O)[O-])c4)c(Oc4cnc5[nH]ccc5c4)c3)[C@H](C)C2)=C(c2ccc(Cl)cc2)C1` [Example 25, 2-((1H-pyrrolo[2,3-b]pyridin-5-yl)oxy)-4-((R)-(((R)-4′-chloro-5-methyl-3,4,5,6-tetrahydro-[1,1′-biphenyl]-2-yl)methyl)-2-methylpiperazin-1-yl)-N-((3-fluoro-5-nitro-4-(((tetrahydro-2H-pyran-4-yl)methyl)amino)phenyl)sulfonyl)benzamide]: over 1000 nM, 2.71 nM and 32 nM.
The matching figures for `C[C@@H]1CCC(CN2CCN(c3ccc(C(=O)NS(=O)(=O)c4cc(F)c(NC[C@H]5COCCO5)c([N+](=O)[O-])c4)c(Oc4cnc5[nH]ccc5c4)c3)[C@H](C)C2)=C(c2ccc(Cl)cc2)C1` [Example 26]: over 1000 nM, 1.63 nM and 14 nM.
With `C[C@@H]1CN(c2ccc(C(=O)NS(=O)(=O)c3ccc(NCC4CCOCC4)c([N+](=O)[O-])c3)c(Oc3cnc4[nH]ccc4c3)c2)CCN1CC1=C(c2ccc(Cl)cc2)CCC(C)(C)C1` [Example 27, (R)-2-((1H-pyrrolo[2,3-b]pyridin-5-yl)oxy)-4-(4-((4′-chloro-4,4-dimethyl-3,4,5,6-tetrahydro-[1,1′-biphenyl]-2-yl)methyl)-3-methylpiperazin-1-yl)-N-((3-nitro-4--(((tetrahydro-2H-pyran-4-yl)methyl)amino)phenyl)sulfonyl)benzamide], the IC50 in experiment [1] is over 1000 nM; in experiment [2], 5.12 nM; in experiment [3], 16 nM.
For the compound `C[C@@H]1CN(c2ccc(C(=O)NS(=O)(=O)c3cc(F)c(NCC4CCOCC4)c([N+](=O)[O-])c3)c(Oc3cnc4[nH]ccc4c3)c2)CCN1CC1=C(c2ccc(Cl)cc2)CCC(C)(C)C1` [Example 28, (R)-2-((1H-pyrrolo[2,3-b]pyridin-5-yl)oxy)-4-(4-((4′-chloro-4,4-dimethyl-3,4,5,6-tetrahydro-[1,1′-biphenyl]-2-yl)methyl)-3-methylpiperazin-1-yl)-N-((3-fluoro-5-nitro-4--(((tetrahydro-2H-pyran-4-yl)methyl)amino)phenyl)sulfonyl)benzamide], the IC50 in experiment [1] is over 1000 nM; in experiment [2], 1.37 nM; in experiment [3], 6.55 nM.
The matching figures for `C[C@@H]1CN(c2ccc(C(=O)NS(=O)(=O)c3ccc(NC[C@H]4COCCO4)c([N+](=O)[O-])c3)c(Oc3cnc4[nH]ccc4c3)c2)CCN1CC1=C(c2ccc(Cl)cc2)CCC(C)(C)C1` [Example 29, N-((4-((((S)-1,4-dioxan-2-yl)methyl)amino)-3-nitrophenyl)sulfonyl)-2-((1H-pyrrolo[2,3-b]pyridin-5-yl)oxy)-4-((R)-4-((4′-chloro-4,4-dimethyl-3,4,5,6-tetrahydro-[1,1′-biphenyl]-2-yl)methyl)-3-methylpiperazin-1-yl) benzamide]: over 1000 nM, 1.6 nM and 4.2 nM.
The matching figures for `C[C@@H]1CN(c2ccc(C(=O)NS(=O)(=O)c3cc(F)c(NC[C@H]4COCCO4)c([N+](=O)[O-])c3)c(Oc3cnc4[nH]ccc4c3)c2)CCN1CC1=C(c2ccc(Cl)cc2)CCC(C)(C)C1` [Example 30, N-((4-((((S)-1,4-dioxan-2-yl)methyl)amino)-3-fluoro-5-nitrophenyl)sulfonyl)-2-((1H-pyrrolo[2,3-b]pyridin-5-yl)oxy)-4-((R)-4-((4′-chloro-4,4-dimethyl-3,4,5,6-tetrahydro-[1,1′-biphenyl]-2-yl)methyl)-3-methylpiperazin-1-yl)benzamide]: 831 nM, 0.84 nM and 2.3 nM.
The matching figures for `C[C@@H]1CN(c2ccc(C(=O)NS(=O)(=O)c3ccc(NCC4CCOCC4)c([N+](=O)[O-])c3)c(Oc3cnc4[nH]ccc4c3)c2)CCN1CC1=C(c2ccc(Cl)cc2)CC(C)(C)C2(CC2)C1` [Example 31, (R)-2-((1H-Pyrrolo[2,3-b]pyridin-5-yl)oxy)-4-(4-((6-(4-chlorophenyl)-8,8-dimethylspiro[2.5]oct-5-en-5-yl)methyl)-3-methylpiperazin-1-yl)-N-((3-nitro-4-(((tetrahydro-2H-pyran-4-yl)methyl)amino)phenyl)sulfonyl)benzamide]: over 1000 nM, 3.57 nM and 8.1 nM.
As for `C[C@@H]1CN(c2ccc(C(=O)NS(=O)(=O)c3cc(F)c(NC[C@H]4COCCO4)c([N+](=O)[O-])c3)c(Oc3cnc4[nH]ccc4c3)c2)CCN1CC1=C(c2ccc(Cl)cc2)CC(C)(C)C2(CC2)C1` [Example 32, N-((4-((((S)-1,4-dioxan-2-yl)methyl)amino)-3-fluoro-5-nitrophenyl)-sulfonyl)-2-((1H-pyrrolo [2,3-b]pyridin-5-yl)oxy)-4-((R)-4-((6-(4-chlorophenyl)-8,8-dimethylspiro[2.5]oct-5-en-5-yl)methyl)-3-methylpiperazin-1-yl) benzamide], the figures for the IC50 in experiment [1], in experiment [2] and in experiment [3] were over 1000 nM, 1.8 nM and 6.6 nM, respectively.
The matching figures for `C[C@@H]1CN(c2ccc(C(=O)NS(=O)(=O)c3cc(F)c(NCC4CCOCC4)c([N+](=O)[O-])c3)c(Oc3cnc4[nH]ccc4c3)c2)CCN1CC1=C(c2ccc(Cl)cc2)CC(C)(C)C2(CC2)C1` [Example 33]: over 1000 nM, 3.16 nM and 16 nM.
The matching figures for `C[C@@H]1CN(c2ccc(C(=O)NS(=O)(=O)c3ccc(NC[C@H]4COCCO4)c([N+](=O)[O-])c3)c(Oc3cnc4[nH]ccc4c3)c2)CCN1CC1=C(c2ccc(Cl)cc2)CC(C)(C)C2(CC2)C1` [Example 34, N-((4-((((S)-1,4-dioxan-2-yl)methyl)amino)-3-nitrophenyl)sulfonyl)-2-((1H-pyrrolo[2,3-b]pyridin-5-yl)oxy)-4-((R)-4-((6-(4-chlorophenyl)-8,8-dimethylspiro[2.5]oct-5-en-5-yl)methyl)-3-methylpiperazin-1-yl) benzamide]: over 1000 nM, 3.33 nM and 6.6 nM.
The matching figures for `C[C@@H]1CN(c2ccc(C(=O)NS(=O)(=O)c3cc(F)c(NC[C@H]4COCCO4)c([N+](=O)[O-])c3)c(Oc3cnc4[nH]ccc4c3)c2)CCN1CC1=C(c2ccc(Cl)cc2)CCC2(CC2)C1` [Example 35, N-((4-((((S)-1,4-dioxan-2-yl)methyl)amino)-3-fluoro-5-nitrophenyl)sulfonyl)-2-((1H-pyrrolo[2,3-b]pyridin-5-yl)oxy)-4-((R)-4-((6-(4-chlorophenyl)spiro[2.5]oct-5-en-5-yl)methyl)-3-methylpiperazin-1-yl)benzamide]: over 1000 nM, 2.96 nM and 17 nM.
Regarding `C[C@@H]1CN(c2ccc(C(=O)NS(=O)(=O)c3ccc(NC[C@H]4COCCO4)c([N+](=O)[O-])c3)c(Oc3cnc4[nH]ccc4c3)c2)CCN1CC1=C(c2ccc(Cl)cc2)CCC2(CC2)C1` [Example 36], the IC50 is over 1000 nM in experiment [1], 4.78 nM in experiment [2] and 21 nM in experiment [3].
For `C[C@@H]1CN(c2ccc(C(=O)NS(=O)(=O)c3cc(F)c(NCC4CCOCC4)c([N+](=O)[O-])c3)c(Oc3cnc4[nH]ccc4c3)c2)CCN1CC1=C(c2ccc(Cl)cc2)CCC2(CC2)C1` [Example 37], the IC50 in experiment [1] is over 1000 nM; in experiment [2] it was 3.15 nM; in experiment [3], 22 nM.
The matching figures for `C[C@@H]1CN(c2ccc(C(=O)NS(=O)(=O)c3ccc(NCC4CCOCC4)c([N+](=O)[O-])c3)c(Oc3cnc4[nH]ccc4c3)c2)CCN1CC1=C(c2ccc(Cl)cc2)CCC2(CC2)C1` [Example 38]: over 1000 nM, 5.24 nM and 32 nM.
`C[C@@H]1CN(c2ccc(C(=O)NS(=O)(=O)c3ccc(NCC4CCOCC4)c([N+](=O)[O-])c3)c(Oc3cnc4[nH]ccc4c3)c2)CCN1CC1=C(c2ccc(Cl)cc2)CC(C)(C)C(C)(C)C1` [Example 39, (R)-2-((1H-pyrrolo[2,3-b]pyridin-5-yl)oxy)-4-(4-((4′-chloro-4,4,5,5-tetramethyl-3,4,5,6-tetrahydro-[1,1′-biphenyl]-2-yl)methyl)-3-methylpiperazin-1-yl)-N-((3-nitro-4--(((tetrahydro-2H-pyran-4-yl)methyl)amino)phenyl)sulfonyl)benzamide]: the figures for the IC50 in experiment [1], in experiment [2] and in experiment [3] were over 1000 nM, 2.68 nM and 14.5 nM, respectively.
Take `C[C@@H]1CN(c2ccc(C(=O)NS(=O)(=O)c3cc(F)c(NCC4CCOCC4)c([N+](=O)[O-])c3)c(Oc3cnc4[nH]ccc4c3)c2)CCN1CC1=C(c2ccc(Cl)cc2)CC(C)(C)C(C)(C)C1` [Example 40]: the IC50 in experiment [1] is over 1000 nM; in experiment [2], 1.77 nM; in experiment [3], 15 nM.
